Laboratory results from patent publication US12209074B2, “SHP2 phosphatase allosteric inhibitor” (BEIJING SHENOGEN PHARMA GROUP LTD., priority 2019, dated 2025).

How the values were obtained:
[1] = test system: Human non-small cell lung cancer NCI-H358; experiment: Cell proliferation assay (CellTiter-Glu) in NCI-H358; assay type: cell-based; details: 5 days, NCI-H358 cells, cell viability by CellTiter-Glu, compound 0.3 nM-2 μM, medium and compound renewed after 3 days
Protocol: Cell proliferation inhibition screening method was established by CellTier-Glu® test reagent from Promega.
Human non-small cell lung cancer NCI-H358 was cultured by RPMI-1640 (Gibco®) medium with 10% fetal bovine serum (Gibco®) at 37° C., 95% air and 5% CO2, in 25 cm^2 or 75 cm^2 plastic culture bottle ((Nunc®) and passaged 2-3 times a week.
The cells were seeded on the 96 well cell culture plate (Nunc®) at the density of 2*10^3/well, 90 μL/well, and cultured at 37° C., 95% air and 5% CO2. The compound to be tested was added 24 hours later: the compound was diluted 3 times with DMSO from the concentration of 2 mM compound (dissolved in DMSO). […] 10 μL of the compound diluted by culture medium was added into the culture plate seeded with cells. The final concentration of DMSO in cell culture medium was 0.1%, and the final concentration of test compound was 0.3 nM-2 μM. The cells were incubated at 37° C. for 3 days. The culture medium was substituted with 90 μL/well fresh complete medium. According to the above diluting method of compounds, the compound to be tested was added.
After 5 days, cell viability was tested by CellTiter-Glu (Promega) kit, and finally, the semi-inhibitory concentration of compounds on cell proliferation, i.e. IC50 was calculated by Prism program.

SHP2 = SHP2 (Homo sapiens (Human), UniProt Q06124); experiment: Detection of in vitro SHP2 protein activity by DiFMUP fluorescence; assay type: biochemical; details: read-out: Phosphatase activity SHP2 IC50; DiFMUP substrate, fluorescence Ex340/Em450, 60 min pre-incubation with polypeptide; read-out: Proteinase activity SHP2 IC50
Text: The screening method of SHP2 protein activity was established by fluorescence detection. The basic principle is: SHP2 as phosphatase can catalyze the dephosphorization of DiFMUP to form DiFMU and free phosphate groups. The product DiFMU emits fluorescence under 340 nm excitation, and 450 nm emission is collected. If the binding of small molecule compounds with SHP2 can inhibit the activity of SHP2 enzyme, the 450 nm emission light detected will be weakened, and the activity of SHP2 enzyme will be finally reflected by the intensity of fluorescence value.
The specific operation was as follows: the 10 mM compound stock solution was diluted to 1 mM with DMSO, and then diluted 3 times with DMSO. 95 μL reaction buffer (60 mM HEPES), 75 mM NaCl, 75 mM KCl, 1 mM EDTA, 5 mM DTT, 1 μL gradient diluted compound, 2 μL SHP2 (concentration was 2 μg/μL) and 1 μL polypeptide (concentration was 50 mM) were added into each well of a 96 well flat clear bottom black plate (costar, 3603). The above test mixture was incubated at room temperature in dark for 60 minutes. Then 2 μL of 10 mM DiFMUP was added into each well, and was incubated at room temperature for 30 minutes. Fluorescence value was determined in the enzyme reader at Ex340/Em450. IC50 of the compounds was obtained by the data analysis software Prism.

hERG channel = hERG channel (Homo sapiens (Human), UniProt Q12809); experiment: hERG inhibitory activity, whole cell patch clamp in hERG-transfected HEK293 cells; assay type: cell-based; details: HEK293 cells transfected with hERG, tail current, tested at 30, 10, 2, 0.5, 0.1 μM
Protocol: Patch Clamp Amplifier System (Multiclamp 700B Amplifier) (AXON), Olympus microscope (Olympus IX51/71/73), and MP285 micromanipulator were used.
HEK293 cell line for transfecting hERG was purchased from Invitrogen Company. The cells were grown in the culture medium with 85% DMEM, 10% fetal bovine serum, 0.1 mM NEAA, 25 mM HEPES buffer, 100 U/mL penicillin-streptomycin, 5 μg/mL blasticidin and 400 μg/mL G418 geneticin.
The cells were passaged three times a week and digested with TrypLE Express to maintain a fusion degree of about 40% to 80%. Before testing, the cells were seeded at the density of 5*10^5 cells/petri dish with a diameter of 6 cm and the cells were induced with 1 μg/ml doxycycline for 48 hours.
The test concentration of the compound solution was 30, 10, 2, 0.5, 0.1 μM after 1000-fold dilution and the final concentration of DMSO was in the range of 0.1%.
The manipulator was adjusted to move the electrode tip to the cell surface to form a high sealing. Liquid connection potential and fast capacitance were compensated, and the cell membrane was broken to form a whole cell recording mode. The membrane potential was set as −60 mV to ensure that the HERG channel was not opened. Cslow on the amplifier was used to eliminate the peak of capacity current. Holding voltage was set as […]. The leakage current test was performed at −80 mV for 500 ms. +30 mV was depolarized for 4.8 seconds, and HERG channel was activated. The voltage was restored to −50 mV for 5.2 seconds, and the tail current was observed. Peak current suppression=[1−(peak tail currentinhibitor−peak tail currentpositive control)/(peak tail currentblank−peak tail currentpositive control)]*100
The dose response curve of hERG current inhibition rate versus the concentration of the tested compound was plotted by using Graphpad Prism 8.0 software.

Sequence of hERG channel (Q12809 whole entry): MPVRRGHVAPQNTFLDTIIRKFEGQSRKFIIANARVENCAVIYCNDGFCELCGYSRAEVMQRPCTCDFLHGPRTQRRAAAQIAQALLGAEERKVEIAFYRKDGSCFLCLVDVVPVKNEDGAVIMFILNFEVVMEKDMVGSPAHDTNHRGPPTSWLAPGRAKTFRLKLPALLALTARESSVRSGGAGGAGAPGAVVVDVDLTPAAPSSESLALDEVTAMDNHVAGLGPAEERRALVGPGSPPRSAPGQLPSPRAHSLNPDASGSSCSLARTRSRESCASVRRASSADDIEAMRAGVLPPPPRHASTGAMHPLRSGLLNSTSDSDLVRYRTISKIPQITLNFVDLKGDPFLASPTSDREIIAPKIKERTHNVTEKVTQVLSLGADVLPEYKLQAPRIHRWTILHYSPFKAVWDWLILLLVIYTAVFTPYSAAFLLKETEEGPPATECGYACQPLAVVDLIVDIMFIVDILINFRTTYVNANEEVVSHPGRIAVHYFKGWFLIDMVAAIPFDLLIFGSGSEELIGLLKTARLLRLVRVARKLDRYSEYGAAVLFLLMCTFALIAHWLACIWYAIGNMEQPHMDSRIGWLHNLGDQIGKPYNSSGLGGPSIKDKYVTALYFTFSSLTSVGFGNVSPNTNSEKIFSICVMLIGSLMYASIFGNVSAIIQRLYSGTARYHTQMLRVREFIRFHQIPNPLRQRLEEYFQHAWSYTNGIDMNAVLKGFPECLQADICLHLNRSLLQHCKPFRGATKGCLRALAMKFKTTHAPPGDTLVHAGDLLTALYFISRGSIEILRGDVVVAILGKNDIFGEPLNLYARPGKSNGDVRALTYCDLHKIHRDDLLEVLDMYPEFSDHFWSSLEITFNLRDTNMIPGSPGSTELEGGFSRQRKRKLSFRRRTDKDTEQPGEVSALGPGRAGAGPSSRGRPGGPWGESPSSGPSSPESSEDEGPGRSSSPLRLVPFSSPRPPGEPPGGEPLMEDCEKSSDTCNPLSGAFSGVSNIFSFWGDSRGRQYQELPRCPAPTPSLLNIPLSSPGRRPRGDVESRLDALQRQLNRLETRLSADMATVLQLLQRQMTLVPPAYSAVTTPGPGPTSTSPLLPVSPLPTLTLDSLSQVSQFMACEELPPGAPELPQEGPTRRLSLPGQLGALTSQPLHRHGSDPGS
Sequence of SHP2 (Q06124 whole entry, species assumed): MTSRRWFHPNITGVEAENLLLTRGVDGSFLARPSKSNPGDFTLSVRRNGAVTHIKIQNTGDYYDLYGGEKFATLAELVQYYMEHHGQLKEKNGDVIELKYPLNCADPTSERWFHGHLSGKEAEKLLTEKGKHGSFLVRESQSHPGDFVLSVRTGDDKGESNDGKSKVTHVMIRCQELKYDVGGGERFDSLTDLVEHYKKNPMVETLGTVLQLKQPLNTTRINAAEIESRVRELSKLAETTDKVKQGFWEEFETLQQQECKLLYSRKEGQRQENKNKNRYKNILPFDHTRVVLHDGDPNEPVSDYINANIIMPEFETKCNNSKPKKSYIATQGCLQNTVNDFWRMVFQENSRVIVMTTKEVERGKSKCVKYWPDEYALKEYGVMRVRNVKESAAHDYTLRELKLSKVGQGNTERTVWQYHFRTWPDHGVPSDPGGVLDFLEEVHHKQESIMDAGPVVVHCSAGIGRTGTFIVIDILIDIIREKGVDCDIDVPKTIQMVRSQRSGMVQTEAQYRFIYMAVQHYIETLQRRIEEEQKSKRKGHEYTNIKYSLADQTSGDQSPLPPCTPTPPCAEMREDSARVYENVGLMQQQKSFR

**Q.** Cc1nc(N2CCC3(CC2)Cc2ccccc2[C@H]3N)c(CO)nc1-c1cccc(Cl)c1Cl [Compound 1, (S)-(3-(1-amino-1,3-dihydrospiro[indene-2,4′-piperidin]-1′-yl)-6-(2,3-dichlorophenyl)-5-methylpyrazin-2-yl)methanol] was tested. Which IC50 [1] did it give?
**A.** The IC50 was 88 nM.

**Q.** What about the IC50 (SHP2) of the same compound?
**A.** The IC50 was 9 nM.

**Q.** And the IC50 (hERG channel)?
**A.** The IC50 was < 100 nM.

**Q.** With Cc1nc(N2CCC3(CC2)Cc2ccc(C#N)cc2[C@H]3N)c(CO)nc1-c1cccc(Cl)c1Cl [Compound 2, (S)-1-amino-1′-(5-(2,3-dichlorophenyl)-3-(hydroxymethyl)-6-methylpyrazin-2-yl)-1,3-dihydrospiro[indene-2,4′-piperidine]-6-carbonitrile] as the compound, how does the IC50 [1] read?
**A.** Its IC50 is 84 nM.

**Q.** And the IC50 (SHP2)?
**A.** The IC50 was 35 nM.

**Q.** With Cc1nc(N2CCC3(CC2)Cc2ncccc2[C@H]3N)c(CO)nc1-c1cccc(Cl)c1Cl [Compound 13, (S)-(3-(5-amino-5,7-dihydrospiro[cyclopenta[b]pyridine-6,4′-piperidin]-1′-yl)-6-(2,3-dichlorophenyl)-5-methylpyrazin-2-yl)methanol] as the compound, how does the IC50 [1] read?
**A.** The IC50 was 1.6 nM.

**Q.** And the IC50 (hERG channel)?
**A.** The IC50 was < 100 nM.

**Q.** Which results are given for Cc1ccc2c(c1)[C@@H](N)C1(CCN(c3nc(C)c(-c4ccnc(Cl)c4Cl)nc3CO)CC1)C2 [Compound 21]?
**A.** IC50 [1]: 11 nM; IC50 (hERG channel): 3030 nM

**Q.** Cc1nc(N2CCC3(CC2)Cc2ccccc2[C@H]3N)c(CO)nc1-c1cncc(Cl)c1 [Compound 44] was tested. Which IC50 [1] did it give?
**A.** Its IC50 is > 1000 nM.

**Q.** With Cc1nc(N2CCC3(CC2)Cc2ccccc2[C@H]3N)c(CO)nc1-c1cnc(N)cc1Cl [Compound 45] as the compound, how does the IC50 [1] read?
**A.** The IC50 was > 1000 nM.

**Q.** For COc1ccc(-c2nc(CO)c(N3CCC4(CC3)Cc3ncccc3[C@H]4N)nc2C)c(Cl)c1 [Compound 46], which IC50 [1] is on record?
**A.** Its IC50 is 379 nM.

**Q.** With Cc1nc(N2CCC3(CC2)Cc2ccccc2[C@H]3N)c(CO)nc1-c1cc(N)nc(Cl)c1Cl [Compound 47] as the compound, how does the IC50 [1] read?
**A.** The IC50 was 30 nM.

**Q.** What about the IC50 (hERG channel) of the same compound?
**A.** Its IC50 is 4290 nM.

**Q.** With Cc1ccc2c(c1)[C@H](N)C1(CCN(c3nc(C)c(-c4ccnc(Cl)c4Cl)nc3CO)CC1)C2 [Compound 48] as the compound, how does the IC50 [1] read?
**A.** The IC50 was > 1000 nM.

**Q.** With Cc1cnc2c(c1)[C@@H](N)C1(CCN(c3nc(C)c(-c4ccnc(Cl)c4Cl)nc3CO)CC1)C2 [Compound 49] as the compound, how does the IC50 [1] read?
**A.** The IC50 was 28 nM.

**Q.** What about the IC50 (hERG channel) of the same compound?
**A.** Its IC50 is 1800 nM.

**Q.** Which IC50 [1] does the source give for Cc1cnc2c(c1)[C@H](N)C1(CCN(c3nc(C)c(-c4ccnc(Cl)c4Cl)nc3CO)CC1)C2 [Compound 50] here?
**A.** Its IC50 is 453 nM.

**Q.** Cc1cnc2c(c1)[C@@H](N)C1(CCN(c3nc(C)c(-c4ccncc4Cl)nc3CO)CC1)C2 [Compound 51] was tested. Which IC50 [1] did it give?
**A.** The IC50 was 81 nM.

**Q.** For Cc1cnc2c(c1)[C@H](N)C1(CCN(c3nc(C)c(-c4ccncc4Cl)nc3CO)CC1)C2 [Compound 52], which IC50 [1] is on record?
**A.** The IC50 was > 1000 nM.

**Q.** With COc1ccc(-c2nc(CO)c(N3CCC4(CC3)Cc3ccccc3[C@H]4N)nc2C)c(Cl)c1Cl [Compound 53] as the compound, how does the IC50 [1] read?
**A.** The IC50 was 328 nM.

**Q.** With Cc1nc(N2CCC3(CC2)Cc2ccccc2[C@H]3N)c(CO)nc1-c1cc(N)nc(C)c1Cl [Compound 54] as the compound, how does the IC50 [1] read?
**A.** Its IC50 is 83 nM.

**Q.** Which IC50 [1] does the source give for Cc1ccnc(-c2nc(CO)c(N3CCC4(CC3)Cc3ccccc3[C@H]4N)nc2C)c1Cl [Compound 55] here?
**A.** Its IC50 is > 1000 nM.

**Q.** With COc1ccc(-c2nc(CO)c(N3CCC4(CC3)Cc3ccccc3[C@H]4N)nc2C)c(Cl)n1 [Compound 56] as the compound, how does the IC50 [1] read?
**A.** Its IC50 is 182 nM.

**Q.** How did the IC50 [1] turn out when Cc1nc(N2CCC3(CC2)Cc2ccccc2[C@H]3N)c(CO)nc1-c1ccc(=O)[nH]c1Cl [Compound 57] was run?
**A.** The IC50 was > 1000 nM.

**Q.** For CNc1cc(Cl)c(-c2nc(CO)c(N3CCC4(CC3)Cc3ccccc3[C@H]4N)nc2C)cn1 [Compound 58], which IC50 [1] is on record?
**A.** The IC50 was > 1000 nM.

**Q.** With CNc1ccc(-c2nc(CO)c(N3CCC4(CC3)Cc3ccccc3[C@H]4N)nc2C)c(Cl)c1C(F)(F)F [Compound 59] as the compound, how does the IC50 [1] read?
**A.** Its IC50 is 115 nM.

**Q.** Cc1cnc2c(c1)[C@@H](N)C1(CCN(c3nc(C)c(-c4ccnc(C)c4Cl)nc3CO)CC1)C2 [Compound 60] was tested. Which IC50 [1] did it give?
**A.** Its IC50 is 75 nM.

**Q.** Which IC50 [1] does the source give for Cc1cncc(-c2nc(CO)c(N3CCC4(CC3)Cc3ccccc3[C@H]4N)nc2C)c1Cl [Compound 61] here?
**A.** The IC50 was 63 nM.

**Q.** What does the source list for Cc1nc(N2CCC3(CC2)Cc2ccccc2[C@H]3N)c(CO)nc1-c1ccnc(C(F)(F)F)c1Cl [Compound 62]?
**A.** IC50 [1]: 15 nM; IC50 (hERG channel): 4230 nM

**Q.** How did the IC50 [1] turn out when Cc1ccc2c(c1)[C@@H](N)C1(CCN(c3nc(C)c(-c4cc(N)nc(Cl)c4Cl)nc3CO)CC1)C2 [Compound 63] was run?
**A.** The IC50 was 40 nM.

**Q.** With Cc1cnc2c(c1)[C@@H](N)C1(CCN(c3nc(C)c(-c4cc(N)nc(Cl)c4Cl)nc3CO)CC1)C2 [Compound 64] as the compound, how does the IC50 [1] read?
**A.** The IC50 was 22 nM.

**Q.** And the IC50 (hERG channel)?
**A.** Its IC50 is 6130 nM.

**Q.** Which IC50 [1] does the source give for Cc1cnc2c(c1)[C@@H](N)C1(CCN(c3nc(C)c(-c4ccnc(Cl)c4Cl)nc3C(C)O)CC1)C2 (some centres unmarked) [Compound 68] here?
**A.** The IC50 was 530 nM.

**Q.** For COc1ccc2c(c1)[C@@H](N)C1(CCN(c3nc(C)c(-c4ccnc(Cl)c4Cl)nc3CO)CC1)C2 [Compound 72], which IC50 [1] is on record?
**A.** Its IC50 is 65.9 nM.

**Q.** And the IC50 (hERG channel)?
**A.** Its IC50 is 2590 nM.

**Q.** What does the source list for COc1nccc(-c2nc(CO)c(N3CCC4(CC3)Cc3ncc(C)cc3[C@H]4N)nc2C)c1Cl [Compound 76]?
**A.** IC50 [1]: 25 nM; IC50 (hERG channel): 2110 nM

**Q.** What does the source list for Cc1nc(N2CCC3(CC2)Cc2ccccc2[C@H]3N)c(CO)nc1-c1ccnc(C#N)c1Cl [Compound 77]?
**A.** IC50 [1]: 33 nM; IC50 (hERG channel): 620 nM
